Laboratory results published in ChEMBL document CHEMBL6092220 (J Med Chem, 2024).

Key:
[1] = Chemical stability of the compound in PBS buffer assessed as half life at pH 7.4; format: physicochemical
[2] = Chemical stability of the compound in PBS buffer assessed as half life at pH 8; format: physicochemical
[3] = Chemical stability of the compound in PBS buffer assessed as half life at pH 4; format: physicochemical
[4] = target: T1, Protein cereblon/Signal transducer and activator of transcription 3 (Homo sapiens, UniProt P40763+Q96SW2); assay: PROTAC activity at his-SUMO-tagged STAT3 (127 to 688 residues)/CRBN in human HeLa cells assessed as induction of STAT3 degradation incubated for 24 hrs by TECAN SPARK microplate reader analysis relative to control; format: cell-based
[5] = target: T2, Protein cereblon/Signal transducer and activator of transcription 3 (Mus musculus) (UniProt P42227+Q8C7D2); assay: In-vivo PROTAC activity at STAT3/CRBN in female CB17 SCID mouse assessed as reduction STAT3 level liver at 10 mg/kg, iv measured at 24 hrs by Western blot analysis; format: functional, organism-based; design: scale not given: the % may be the effect or the level left
[6] = target: T1, Protein cereblon/Signal transducer and activator of transcription 3; assay: PROTAC activity at his-SUMO-tagged STAT3 (127 to 688 residues)/CRBN in human HeLa cells assessed as induction of STAT3 degradation incubated for 24 hrs by TECAN SPARK microplate reader analysis; format: cell-based
[7] = Binding affinity to STAT5 (unknown origin) by FP assay; design: species or system Homo sapiens
[8] = target: T2, Protein cereblon/Signal transducer and activator of transcription 3 (Mus musculus); assay: In-vivo PROTAC activity at STAT3/CRBN in female CB17 SCID mouse assessed as reduction STAT3 level spleen at 10 mg/kg, iv measured at 24 hrs by Western blot analysis; format: functional, organism-based; design: scale not given: the % may be the effect or the level left
[9] = target: Signal transducer and activator of transcription 6 (Homo sapiens, UniProt P42226); assay: Binding affinity to STAT6 (unknown origin) by FP assay
[10] = target: Signal transducer and activator of transcription 4 (Homo sapiens) (UniProt Q14765); assay: Binding affinity to STAT4 (unknown origin) assessed as maximum inhibition by FP assay relative to control
[11] = target: Signal transducer and activator of transcription 1-alpha/beta (Homo sapiens, UniProt P42224); assay: Binding affinity to STAT1 (unknown origin) by FP assay
SU-DHL-1 = assay: Antiproliferative activity against human SU-DHL-1 cells assessed as cell growth inhibition incubated for 4 days by celltiter-glo assay; format: functional, cell-based; conditions: SU-DHL-1, 96 h
[12] = Antiproliferative activity against human SUPM2 cells assessed as cell growth inhibition incubated for 4 days by celltiter-glo assay; format: functional, cell-based; conditions: SUP-M2, 96 h
[13] = target: Signal transducer and activator of transcription 1-alpha/beta (Homo sapiens) (UniProt P42224); assay: Binding affinity to STAT1 (unknown origin) assessed as maximum inhibition by FP assay relative to control
[14] = target: T3, Signal transducer and activator of transcription 3 (Homo sapiens, UniProt P40763); assay: Binding affinity to STAT3 (unknown origin) assessed as maximum inhibition by FP assay relative to control
[15] = Antiproliferative activity against human MOLM16 cells assessed as cell growth inhibition incubated for 4 days by celltiter-glo assay; format: functional, cell-based, MOLM-16; conditions: MOLM16, 96 h
[16] = target: Signal transducer and activator of transcription 4 (Homo sapiens, UniProt Q14765); assay: Binding affinity to STAT4 (unknown origin) by FP assay
[17] = target: Protein cereblon/Signal transducer and activator of transcription 4 (Homo sapiens, UniProt Q96SW2+Q14765); assay: PROTAC activity at STAT4/CRBN in human SU-DHL-1 cells assessed as reduction in STAT4 level incubated for 20 hrs by Western blot analysis; format: cell-based; conditions: dose <= 40.0 µM
[18] = target: Signal transducer and activator of transcription 6 (Homo sapiens) (UniProt P42226); assay: Binding affinity to STAT6 (unknown origin) assessed as maximum inhibition by FP assay relative to control
[19] = target: T2, Protein cereblon/Signal transducer and activator of transcription 3 (Mus musculus); assay: In-vivo PROTAC activity at STAT3/CRBN in female CB17 SCID mouse assessed as reduction STAT3 level spleen at 10 mg/kg, iv measured at 72 hrs by Western blot analysis; format: functional, organism-based; design: scale not given: the % may be the effect or the level left
[20] = Half life in Sprague-Dawley rat at 5 mg/kg, iv; format: ADME, organism-based; conditions: in vivo
[21] = Plasma protein binding in dog at 10 uM; format: ADME, cell-free, Canis lupus familiaris
[22] = Cmax in Sprague-Dawley rat at 5 mg/kg, iv; format: ADME, organism-based; conditions: in vivo
[23] = Cmax in ICR mouse at 5 mg/kg, iv; format: ADME, organism-based; conditions: in vivo
[24] = Half life in ICR mouse at 5 mg/kg, iv; format: ADME, organism-based; conditions: in vivo
[25] = Clearance in Sprague-Dawley rat assessed as hepatic blood flow at 5 mg/kg, iv; format: ADME, organism-based; conditions: in vivo
[26] = Apparent volume of distribution in Sprague-Dawley rat at 5 mg/kg, iv; format: ADME, organism-based; conditions: in vivo, read-out: Vz
[27] = Plasma protein binding in rat at 10 uM; format: ADME, cell-free
[28] = Clearance in ICR mouse at 5 mg/kg, iv; format: ADME, organism-based; conditions: in vivo
[29] = target: T2, Protein cereblon/Signal transducer and activator of transcription 3 (Mus musculus); assay: In-vivo PROTAC activity at STAT3/CRBN in female CB17 SCID mouse assessed as reduction STAT3 level liver at 10 mg/kg, iv measured at 48 hrs by Western blot analysis; format: functional, organism-based; design: scale not given: the % may be the effect or the level left
[30] = Half life in Beagle dog at 1 mg/kg, iv; format: ADME, organism-based, Canis lupus familiaris; conditions: in vivo
[31] = Clearance in Sprague-Dawley rat at 5 mg/kg, iv; format: ADME, organism-based; conditions: in vivo
[32] = Plasma protein binding in dog assessed as unbound fraction at 10 uM; format: ADME, cell-free, Canis lupus familiaris
[33] = Clearance in Beagle dog at 1 mg/kg, iv; format: ADME, organism-based, Canis lupus familiaris; conditions: in vivo
[34] = AUC (0 to t) in Sprague-Dawley rat at 5 mg/kg, iv; format: ADME, organism-based; conditions: in vivo
[35] = Clearance in ICR mouse assessed as hepatic blood flow at 5 mg/kg, iv; format: ADME, organism-based; conditions: in vivo
[36] = AUC (0 to t) in Beagle dog at 1 mg/kg, iv; format: ADME, organism-based, Canis lupus familiaris; conditions: in vivo
[37] = target: T2, Protein cereblon/Signal transducer and activator of transcription 3 (Mus musculus); assay: In-vivo PROTAC activity at STAT3/CRBN in female CB17 SCID mouse assessed as reduction STAT3 level liver at 10 mg/kg, iv measured at 72 hrs by Western blot analysis; format: functional, organism-based; design: scale not given: the % may be the effect or the level left
[38] = Clearance in Beagle dog assessed as hepatic blood flow at 1 mg/kg, iv; format: ADME, organism-based, Canis lupus familiaris; conditions: in vivo
[39] = AUC (0 to t) in ICR mouse at 5 mg/kg, iv; format: ADME, organism-based; conditions: in vivo
[40] = Plasma protein binding in human at 10 uM; format: ADME, cell-free
[41] = Plasma protein binding in human assessed as unbound fraction at 10 uM; format: ADME, cell-free
[42] = Apparent volume of distribution in Beagle dog at 1 mg/kg, iv; format: ADME, organism-based, Canis lupus familiaris; conditions: in vivo, read-out: Vz
[43] = Cmax in Beagle dog at 1 mg/kg, iv; format: ADME, organism-based, Canis lupus familiaris; conditions: in vivo
[44] = Plasma protein binding in rat assessed as unbound fraction at 10 uM; format: ADME, cell-free
[45] = Apparent volume of distribution in ICR mouse at 5 mg/kg, iv; format: ADME, organism-based; conditions: in vivo, read-out: Vz
[46] = target: T2, Protein cereblon/Signal transducer and activator of transcription 3 (Mus musculus); assay: In-vivo PROTAC activity at STAT3/CRBN in female CB17 SCID mouse assessed as reduction STAT3 level spleen at 10 mg/kg, iv measured at 48 hrs by Western blot analysis; format: functional, organism-based; design: scale not given: the % may be the effect or the level left
[47] = Plasma protein binding in mouse at 10 uM; format: ADME, cell-free
[48] = target: T3, Signal transducer and activator of transcription 3; assay: Binding affinity to STAT3 (unknown origin) assessed as inhibition constant
[49] = Chemical stability of the compound in PBS buffer at pH 7.4; format: physicochemical
[50] = Chemical stability of the compound in PBS buffer at pH 8; format: physicochemical
[51] = Chemical stability of the compound in PBS buffer at pH 4; format: physicochemical

CN1CC[C@H]2CC[C@@H](C(=O)N[C@@H](CCC(N)=O)C(=O)NC(c3ccccc3)c3ccccc3)N2C(=O)[C@@H](NC(=O)c2cc3cc(C(F)(F)P(=O)(O)O)ccc3[nH]2)C1
t1/2 [1]: 2 h | t1/2 [2]: 2 h | t1/2 [3]: 4 h

CN1CC[C@H]2CC[C@@H](C(=O)N[C@@H](CCC(N)=O)C(=O)N[C@@H](Cc3ccccc3)C(=O)N3CCC(CCC#Cc4cccc5c4CN(C4CCC(=O)NC4=O)C5=O)CC3)N2C(=O)[C@@H](NC(=O)c2cc3cc(C(F)(F)P(=O)(O)O)ccc3s2)C1 (some centres not stated)
Emax [4]: 94% | Activity [5]: 60% | DC50 [6]: 0.13 µM | IC50 [7]: > 0.01 µM | Activity [8]: 50%

NC(=O)CC[C@H](NC(=O)[C@@H]1CC[C@@H]2CCN(C(=O)CCCCCC#Cc3cccc4c3CN(C3CCC(=O)NC3=O)C4=O)C[C@H](NC(=O)c3cc4cc(C(F)(F)P(=O)(O)O)ccc4[nH]3)C(=O)N21)C(=O)NC(c1ccccc1)c1ccccc1 (some centres not stated)
IC50 [9]: > 10 µM | Imax [10]: 93% | IC50 [11]: 1.3 µM | IC50 (SU-DHL-1): 0.33 µM | Emax [4]: 86% | IC50 [12]: 0.49 µM | Imax [13]: 92% | DC50 [6]: 0.4 µM | Imax [14]: 100% | IC50 [15]: 0.03 µM | IC50 [16]: 1.1 µM | Activity [17]: Dose-dependent-effect | Imax [18]: 0% | IC50 [7]: > 0.01 µM

CC(=O)N1CC[C@H]2CC[C@@H](C(=O)N[C@@H](CCC(N)=O)C(=O)N[C@@H](Cc3ccc(F)c(F)c3)C(=O)N3CCC(CCC#Cc4cccc5c4CN(C4CCC(=O)NC4=O)C5=O)CC3)N2C(=O)[C@@H](NC(=O)c2cc3cc(C(F)(F)P(=O)(O)O)ccc3s2)C1 (some centres not stated)
Activity [19]: > 90% | half-life [20]: 1.3 h | PPB [21]: 96.7% | Cmax [22]: 15900 ng/mL | IC50 (SU-DHL-1): 3.58 µM | Cmax [23]: 121000 ng/mL | half-life [24]: 16.9 h | QH [25]: 7.3% | Vd [26]: 0.44 L/kg | Emax [4]: 68% | PPB [27]: 96.2% | clearance [28]: 0.073 mL/min/kg | Activity [29]: > 90% | IC50 [12]: 1.46 µM | half-life [30]: 2.9 h | Activity [5]: > 90% | clearance [31]: 4 mL/min/kg | Fu [32]: 3.3% | DC50 [6]: 1.6 µM | clearance [33]: 1 mL/min/kg | IC50 [15]: 0.075 µM | AUC(0-t) [34]: 21100 ng·h/mL | QH [35]: 0.1% | AUC(0-t) [36]: 15000 ng·h/mL | Activity [37]: > 90% | QH [38]: 3.1% | AUC(0-t) [39]: 739000 ng·h/mL | PPB [40]: 99.4% | Fu [41]: 0.6% | Vd [42]: 0.24 L/kg | Cmax [43]: 8030 ng/mL | Fu [44]: 3.8% | Vd [45]: 0.11 L/kg | Activity [46]: > 90% | Activity [8]: > 90% | PPB [47]: 99.1%

CN1CC[C@H]2CC[C@@H](C(=O)N[C@@H](CCC(N)=O)C(=O)NC(c3ccccc3)c3ccccc3)N2C(=O)[C@@H](NC(=O)c2cc3cc(C(F)(F)P(=O)(O)O)ccc3s2)C1
Ki [48]: 0.006 µM | Stability [49]: Stable | Stability [50]: Stable | Stability [51]: Stable
